Assay results published in ChEMBL document CHEMBL5465560, “Selectivity Literature for EUbOPEN Chemogenomic Library” (2024).

Key:
[1] = biological target: T1, Myosin light chain kinase family member 4 (Homo sapiens) (UniProt Q86YV6); assay: Selectivity interaction (KinomeScan (DiscoverX)) EUB0000045b MYLK4
T1 sequence (whole entry): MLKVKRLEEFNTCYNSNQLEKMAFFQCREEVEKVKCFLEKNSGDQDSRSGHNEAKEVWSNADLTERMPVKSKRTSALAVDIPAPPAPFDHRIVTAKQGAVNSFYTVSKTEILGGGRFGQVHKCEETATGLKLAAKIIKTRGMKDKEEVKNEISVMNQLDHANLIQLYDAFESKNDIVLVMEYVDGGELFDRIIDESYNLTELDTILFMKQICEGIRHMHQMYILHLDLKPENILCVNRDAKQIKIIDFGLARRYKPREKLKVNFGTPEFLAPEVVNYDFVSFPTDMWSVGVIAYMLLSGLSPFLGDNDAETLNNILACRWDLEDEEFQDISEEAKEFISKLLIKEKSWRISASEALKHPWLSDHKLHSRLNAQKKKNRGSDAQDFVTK

[2] = biological target: Cyclin-dependent kinase-like 3 (Homo sapiens) (UniProt Q8IVW4); assay: Selectivity interaction (KinomeScan (DiscoverX)) EUB0000045b CDKL3
Chain of Cyclin-dependent kinase-like 3 (Homo sapiens) (Q8IVW4 whole entry, looked up): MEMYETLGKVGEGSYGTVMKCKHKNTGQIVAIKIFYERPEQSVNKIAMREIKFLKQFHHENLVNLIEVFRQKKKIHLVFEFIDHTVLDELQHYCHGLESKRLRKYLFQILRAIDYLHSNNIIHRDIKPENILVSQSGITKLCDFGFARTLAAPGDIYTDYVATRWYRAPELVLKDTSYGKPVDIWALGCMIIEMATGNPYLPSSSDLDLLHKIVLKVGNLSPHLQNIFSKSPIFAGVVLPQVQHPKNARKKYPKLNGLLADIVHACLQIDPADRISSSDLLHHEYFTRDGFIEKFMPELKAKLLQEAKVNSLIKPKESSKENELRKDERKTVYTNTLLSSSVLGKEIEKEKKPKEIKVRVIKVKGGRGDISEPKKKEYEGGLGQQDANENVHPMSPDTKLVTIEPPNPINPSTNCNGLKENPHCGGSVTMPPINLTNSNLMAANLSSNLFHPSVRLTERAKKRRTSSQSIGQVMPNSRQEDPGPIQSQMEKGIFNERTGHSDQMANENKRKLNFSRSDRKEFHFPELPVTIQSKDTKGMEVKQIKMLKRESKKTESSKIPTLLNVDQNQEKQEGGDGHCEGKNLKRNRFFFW

[3] = biological target: Mitogen-activated protein kinase 8 (Homo sapiens, UniProt P45983); assay: Selectivity interaction (KinomeScan (DiscoverX)) EUB0001079a MAPK8; conditions: at 1 µM
Chain of Mitogen-activated protein kinase 8 (P45983 whole entry): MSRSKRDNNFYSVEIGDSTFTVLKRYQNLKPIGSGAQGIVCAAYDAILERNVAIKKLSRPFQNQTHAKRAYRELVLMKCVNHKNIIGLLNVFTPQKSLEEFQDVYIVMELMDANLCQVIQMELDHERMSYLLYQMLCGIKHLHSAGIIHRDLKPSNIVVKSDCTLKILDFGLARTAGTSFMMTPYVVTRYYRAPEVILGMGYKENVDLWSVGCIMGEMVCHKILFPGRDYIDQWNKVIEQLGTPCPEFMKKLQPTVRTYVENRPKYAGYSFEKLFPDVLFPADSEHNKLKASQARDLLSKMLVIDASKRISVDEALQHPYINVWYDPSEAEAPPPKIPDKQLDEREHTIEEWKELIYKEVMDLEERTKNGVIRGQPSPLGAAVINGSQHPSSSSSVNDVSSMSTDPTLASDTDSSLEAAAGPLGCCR

[4] = biological target: T2, Serine/threonine-protein kinase Sgk1 (Homo sapiens) (UniProt O00141); assay: Selectivity interaction (KinomeScan (DiscoverX)) EUB0001079a SGK1; conditions: at 1 µM
T2 sequence (whole entry): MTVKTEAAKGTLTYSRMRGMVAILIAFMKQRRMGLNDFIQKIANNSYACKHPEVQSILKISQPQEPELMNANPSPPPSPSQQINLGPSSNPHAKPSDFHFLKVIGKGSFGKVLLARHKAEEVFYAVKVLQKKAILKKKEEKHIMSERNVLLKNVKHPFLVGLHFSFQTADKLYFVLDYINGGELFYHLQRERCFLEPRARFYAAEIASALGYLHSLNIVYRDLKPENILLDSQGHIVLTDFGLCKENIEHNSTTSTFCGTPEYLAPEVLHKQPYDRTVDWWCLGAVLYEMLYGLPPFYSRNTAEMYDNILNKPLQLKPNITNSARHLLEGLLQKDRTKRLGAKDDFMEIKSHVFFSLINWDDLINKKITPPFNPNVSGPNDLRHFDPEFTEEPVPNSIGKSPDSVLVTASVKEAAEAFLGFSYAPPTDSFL

[5] = biological target: Histone-lysine N-methyltransferase, H3 lysine-36 specific (Homo sapiens) (UniProt Q96L73); assay: Selectivity interaction (Methyltransferase screen (radiometric assays, panel of 8 PRMTs, 21 protein lysine methyltransferases, 3 DNA methyltransferases, and one RNA methyltransferase)) EUB0000272b NSD1
Chain of Histone-lysine N-methyltransferase, H3 lysine-36 specific (Homo sapiens) (Q96L73 whole entry): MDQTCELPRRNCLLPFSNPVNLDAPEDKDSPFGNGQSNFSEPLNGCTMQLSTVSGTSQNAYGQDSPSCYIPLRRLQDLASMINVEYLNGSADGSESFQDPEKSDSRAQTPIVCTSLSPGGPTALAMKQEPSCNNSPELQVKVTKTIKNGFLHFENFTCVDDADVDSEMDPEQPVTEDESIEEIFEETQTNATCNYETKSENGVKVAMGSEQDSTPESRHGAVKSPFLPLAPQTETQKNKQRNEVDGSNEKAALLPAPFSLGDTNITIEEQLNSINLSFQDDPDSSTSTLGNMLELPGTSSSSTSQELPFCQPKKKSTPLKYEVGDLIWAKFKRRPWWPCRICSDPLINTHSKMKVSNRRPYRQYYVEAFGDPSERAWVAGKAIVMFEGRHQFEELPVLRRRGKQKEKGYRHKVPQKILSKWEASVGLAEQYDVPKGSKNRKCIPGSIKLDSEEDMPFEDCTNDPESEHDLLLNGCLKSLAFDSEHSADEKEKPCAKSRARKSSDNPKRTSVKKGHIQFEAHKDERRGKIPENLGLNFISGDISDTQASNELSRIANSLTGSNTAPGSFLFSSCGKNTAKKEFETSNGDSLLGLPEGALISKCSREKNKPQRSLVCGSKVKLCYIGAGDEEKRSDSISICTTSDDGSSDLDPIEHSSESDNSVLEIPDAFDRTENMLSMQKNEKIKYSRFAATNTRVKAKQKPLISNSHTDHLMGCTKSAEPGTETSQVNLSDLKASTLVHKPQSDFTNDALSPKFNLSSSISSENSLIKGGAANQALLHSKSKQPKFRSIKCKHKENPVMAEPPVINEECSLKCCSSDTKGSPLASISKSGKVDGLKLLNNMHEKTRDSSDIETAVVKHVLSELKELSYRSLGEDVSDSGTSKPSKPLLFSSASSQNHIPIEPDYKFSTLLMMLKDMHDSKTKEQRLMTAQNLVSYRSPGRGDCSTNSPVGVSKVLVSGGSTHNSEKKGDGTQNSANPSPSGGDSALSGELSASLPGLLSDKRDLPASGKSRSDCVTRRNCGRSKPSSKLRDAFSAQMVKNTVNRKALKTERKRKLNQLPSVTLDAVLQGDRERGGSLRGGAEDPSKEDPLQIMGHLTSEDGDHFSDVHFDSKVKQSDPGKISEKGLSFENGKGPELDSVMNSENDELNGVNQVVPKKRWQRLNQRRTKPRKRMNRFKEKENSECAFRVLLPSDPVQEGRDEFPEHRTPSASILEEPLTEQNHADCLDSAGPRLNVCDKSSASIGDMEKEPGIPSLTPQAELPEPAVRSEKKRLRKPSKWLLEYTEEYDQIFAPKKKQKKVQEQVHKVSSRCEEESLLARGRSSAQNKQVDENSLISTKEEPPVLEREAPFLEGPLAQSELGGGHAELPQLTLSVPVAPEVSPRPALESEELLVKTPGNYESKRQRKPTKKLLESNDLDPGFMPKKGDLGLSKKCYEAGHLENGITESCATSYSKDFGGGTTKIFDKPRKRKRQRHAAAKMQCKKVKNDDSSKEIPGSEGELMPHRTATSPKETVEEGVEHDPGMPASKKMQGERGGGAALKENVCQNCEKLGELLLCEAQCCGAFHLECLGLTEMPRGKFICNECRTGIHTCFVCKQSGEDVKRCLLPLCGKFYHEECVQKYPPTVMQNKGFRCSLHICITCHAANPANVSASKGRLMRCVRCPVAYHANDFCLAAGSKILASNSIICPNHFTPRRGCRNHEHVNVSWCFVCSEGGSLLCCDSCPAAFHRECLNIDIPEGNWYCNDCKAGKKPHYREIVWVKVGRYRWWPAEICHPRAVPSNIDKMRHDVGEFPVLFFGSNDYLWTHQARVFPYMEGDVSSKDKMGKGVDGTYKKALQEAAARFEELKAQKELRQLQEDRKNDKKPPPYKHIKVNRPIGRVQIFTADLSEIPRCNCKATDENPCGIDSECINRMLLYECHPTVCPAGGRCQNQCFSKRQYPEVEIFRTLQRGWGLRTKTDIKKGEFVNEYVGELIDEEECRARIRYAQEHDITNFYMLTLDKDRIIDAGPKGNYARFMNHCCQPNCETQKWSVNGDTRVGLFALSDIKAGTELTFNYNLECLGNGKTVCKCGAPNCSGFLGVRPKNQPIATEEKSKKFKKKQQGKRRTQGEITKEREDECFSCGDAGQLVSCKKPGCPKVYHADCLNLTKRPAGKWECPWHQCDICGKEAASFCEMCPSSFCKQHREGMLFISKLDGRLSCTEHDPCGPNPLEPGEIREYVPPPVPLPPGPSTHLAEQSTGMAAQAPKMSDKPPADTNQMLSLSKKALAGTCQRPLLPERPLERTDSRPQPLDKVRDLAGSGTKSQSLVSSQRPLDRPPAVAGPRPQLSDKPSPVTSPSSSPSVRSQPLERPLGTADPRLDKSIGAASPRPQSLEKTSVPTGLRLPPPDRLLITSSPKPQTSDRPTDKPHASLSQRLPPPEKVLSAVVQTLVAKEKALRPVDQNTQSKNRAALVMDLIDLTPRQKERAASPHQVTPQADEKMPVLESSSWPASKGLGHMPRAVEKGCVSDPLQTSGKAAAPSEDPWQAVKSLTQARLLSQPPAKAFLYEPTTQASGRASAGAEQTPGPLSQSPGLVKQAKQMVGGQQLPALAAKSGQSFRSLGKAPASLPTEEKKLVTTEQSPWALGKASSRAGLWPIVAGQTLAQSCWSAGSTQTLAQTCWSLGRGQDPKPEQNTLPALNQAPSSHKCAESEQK

[6] = biological target: T3, Inhibitor of nuclear factor kappa-B kinase subunit epsilon (Homo sapiens) (UniProt Q14164); conditions: at 10 µM
T3 sequence (whole entry): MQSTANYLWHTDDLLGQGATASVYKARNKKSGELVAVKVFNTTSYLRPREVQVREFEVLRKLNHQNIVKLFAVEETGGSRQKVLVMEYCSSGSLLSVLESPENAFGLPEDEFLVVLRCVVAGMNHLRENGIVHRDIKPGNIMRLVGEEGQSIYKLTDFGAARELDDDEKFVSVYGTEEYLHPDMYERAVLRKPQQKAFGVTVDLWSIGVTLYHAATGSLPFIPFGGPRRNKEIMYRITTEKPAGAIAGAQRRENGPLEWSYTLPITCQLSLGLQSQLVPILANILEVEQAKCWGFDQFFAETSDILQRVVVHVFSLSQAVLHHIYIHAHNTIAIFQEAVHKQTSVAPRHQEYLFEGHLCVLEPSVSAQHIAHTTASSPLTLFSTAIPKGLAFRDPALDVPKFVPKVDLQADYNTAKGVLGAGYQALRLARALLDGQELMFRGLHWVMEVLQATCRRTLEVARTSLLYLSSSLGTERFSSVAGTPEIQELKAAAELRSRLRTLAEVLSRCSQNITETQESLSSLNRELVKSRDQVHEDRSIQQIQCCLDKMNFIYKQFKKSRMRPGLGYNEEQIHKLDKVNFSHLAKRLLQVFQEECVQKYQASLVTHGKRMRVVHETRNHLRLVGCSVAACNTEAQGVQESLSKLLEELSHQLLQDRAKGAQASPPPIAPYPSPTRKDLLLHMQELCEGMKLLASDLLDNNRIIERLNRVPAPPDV

[7] = biological target: Calcium/calmodulin-dependent protein kinase type II subunit alpha (Homo sapiens, UniProt Q9UQM7); assay: Selectivity interaction (KinomeScan (DiscoverX)) EUB0000607a CAMK2A; conditions: at 10 µM
[8] = biological target: Mitogen-activated protein kinase kinase kinase 9 (Homo sapiens) (UniProt P80192); assay: Selectivity interaction (KinomeScan (DiscoverX)) EUB0000607a MAP3K9; conditions: at 10 µM
[9] = biological target: BDNF/NT-3 growth factors receptor (Homo sapiens) (UniProt Q16620); assay: Selectivity interaction (KinomeScan (DiscoverX)) EUB0000607a NTRK2; conditions: at 10 µM
Chain of BDNF/NT-3 growth factors receptor (Homo sapiens) (Q16620 32-822 limits assumed): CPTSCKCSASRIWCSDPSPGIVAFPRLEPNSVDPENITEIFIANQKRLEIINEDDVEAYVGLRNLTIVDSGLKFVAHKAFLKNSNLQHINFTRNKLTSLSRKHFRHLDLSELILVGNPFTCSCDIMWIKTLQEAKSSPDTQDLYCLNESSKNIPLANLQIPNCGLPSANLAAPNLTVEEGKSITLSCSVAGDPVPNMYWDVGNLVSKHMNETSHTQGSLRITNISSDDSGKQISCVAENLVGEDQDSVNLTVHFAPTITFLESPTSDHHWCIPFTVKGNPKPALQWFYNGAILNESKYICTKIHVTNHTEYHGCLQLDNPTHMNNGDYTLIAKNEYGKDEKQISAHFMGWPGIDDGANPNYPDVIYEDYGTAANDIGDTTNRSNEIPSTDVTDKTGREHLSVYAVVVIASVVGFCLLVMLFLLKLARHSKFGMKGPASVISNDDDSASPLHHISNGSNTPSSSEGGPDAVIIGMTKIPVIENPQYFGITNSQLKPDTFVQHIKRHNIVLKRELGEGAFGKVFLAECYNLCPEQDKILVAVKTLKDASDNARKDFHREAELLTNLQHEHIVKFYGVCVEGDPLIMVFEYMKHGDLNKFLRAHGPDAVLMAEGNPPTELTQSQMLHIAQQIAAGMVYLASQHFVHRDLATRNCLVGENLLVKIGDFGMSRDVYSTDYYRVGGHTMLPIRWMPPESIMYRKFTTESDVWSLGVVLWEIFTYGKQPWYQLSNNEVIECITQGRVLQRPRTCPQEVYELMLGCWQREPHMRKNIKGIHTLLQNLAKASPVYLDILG

[10] = biological target: Serine/threonine-protein kinase 33 (Homo sapiens) (UniProt Q9BYT3); assay: Selectivity interaction (Kinase panel (Invitrogen)) EUB0000639a STK33; conditions: at 200 nM
Chain of Serine/threonine-protein kinase 33 (Homo sapiens) (Q9BYT3 whole entry, looked up): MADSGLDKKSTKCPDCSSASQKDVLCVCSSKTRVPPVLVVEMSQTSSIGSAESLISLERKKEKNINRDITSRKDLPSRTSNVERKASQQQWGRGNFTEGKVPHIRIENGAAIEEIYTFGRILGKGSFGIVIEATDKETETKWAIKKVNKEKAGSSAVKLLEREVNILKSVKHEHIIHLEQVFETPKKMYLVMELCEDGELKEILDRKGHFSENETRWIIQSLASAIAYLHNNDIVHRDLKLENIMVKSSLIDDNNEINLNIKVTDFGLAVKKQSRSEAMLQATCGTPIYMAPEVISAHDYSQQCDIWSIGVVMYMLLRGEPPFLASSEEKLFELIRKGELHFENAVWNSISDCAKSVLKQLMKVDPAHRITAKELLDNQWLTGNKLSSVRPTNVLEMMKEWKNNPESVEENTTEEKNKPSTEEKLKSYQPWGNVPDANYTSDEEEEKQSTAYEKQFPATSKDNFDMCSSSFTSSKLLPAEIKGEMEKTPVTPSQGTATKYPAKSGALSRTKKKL

[11] = biological target: Mitogen-activated protein kinase 14 (Homo sapiens, UniProt Q16539); assay: Selectivity interaction (KinomeScan (DiscoverX)) EUB0000655a MAPK14; conditions: at 10 µM

Compound `C=CC(=O)Nc1cc(-n2c(=O)ccc3cnc4ccc(-c5ccc(NS(C)(=O)=O)cc5)cc4c32)ccc1C` has a % of control ([1]; at 1 µM) of 96%, a % of control ([1]; at 10 µM) of 97% and a % of control ([2]; at 1 µM) of 100%. For the same compound, the % of control ([2]; at 10 µM) was 96%.

`Nc1cnc(N2CCc3cc(S(=O)(=O)Nc4c(F)cc(Cl)cc4F)cc(N4CCCC4=O)c32)nc1` [TP-020n] was tested, and the % of control [3] was 78% and the % of control [4] was 100%.

In the case of `Cc1cc(C)cc([C@H]2c3cc(C)ccc3NC(=O)CN2C(=O)c2ccc(Br)s2)c1`, the % of activity ([5]; at 1 µM) was 100% and the % of activity ([5]; at 10 µM) was 102%.

In the case of `Cc1cc([C@@H](C)Nc2ccccc2C(=O)O)c2nc(N3CCOCC3)cc(=O)n2c1` [AZD-6482], the % of control [6] was 85%.

Work on `CNC(=O)Nc1ccc(-c2nc(N3CC4CCC(C3)O4)c3cnn(C4CCC5(CC4)OCCO5)c3n2)cc1` yielded a % of control [7] of 100%, a % of control [8] of 97% and a % of control [9] of 100%.

Compound `CC[C@@H]1[C@H](F)C(=O)N[C@@H]1COc1nccc2cc(C(N)=O)c(OC)cc12` [ZIMLOVISERTIB] has a % of inhibition [10] of 6.96%.

For `CN(C)CCOc1ccc(-c2nc(-c3ccncc3)c(-c3ccc4c(c3)CC/C4=N\O)[nH]2)cc1`, the % of control [11] was 85%.
